Data reported in patent publication US20170128518A1, “METHODS AND MATERIALS FOR IDENTIFYING AND TREATING MAMMALS RESISTANT TO PROTEASOME INHIBITOR TREATMENTS” (Mayo Foundation for Medical Education and Research, priority 2014, published 2017).
Entries after “also recorded” stand apart in the source; their conditions may differ.

Assays:
[1] = system: WM cell lines (WT and BR); test: Annexin-V apoptosis assay, WM cell lines; type: cell-based, human; conditions: 0.64 μmol/l, 12 hours
Method: FIGS. 12A-12D are a series of graphs and Western blots showing b-AP15 induction of tumor-specific apoptosis in WM cell lines and primary patient-derived WM cells. FIG. 12A is a graph plotting cell death as a percentage of control cell death for all available WM cell lines (n=6, WT and BR derivatives) after treatment with the indicated concentrations of b-AP15, followed by staining with annexin-V and propidium iodide and then flow cytometry to examine apoptosis. […] Each experiment was conducted a minimum of three times with control cells (no drug treatment) showing a viability ([…] and propidium iodide-negative population) of >85%. Following treatment, the percentage of cells affected by b-AP15 was calculated by normalizing data from treated cells relative to the control (untreated) cells. […]
Apoptosis was measured using the Annexin V binding assay kit from BD Biosciences according to the manufacturer's instructions. […] Fluorescein isothiocycanate (FITC)-labelled Annexin V (5 μl) and propidium iodide (10μ were added to each sample and incubated in the dark for 15 minutes at room temperature. The cells were subsequently analyzed by flow cytometry using BD Accuri, the C6 flow cytometer and its software. Data from 10,000 events per sample were collected and analyzed.

[2] = system: NF-κB reporter in HEK293 cells expressing MYD88 L265P; test: NF-κB luciferase reporter assay; type: cell-based, human; conditions: 24 hours; 0.5 μmol/l
Method: HEK293 cells expressing MYD88 L265P were generated as described elsewhere (Ansell et al., Blood Cancer J, 4:e183, 2014). Cells were transiently transfected with 0.5 ng Renilla and 0.25 μg of a pNFκB-luciferase reporter plasmid/1.0×10^6 cells. b-AP15 was added to each well at the indicated doses; after 24 hours, luciferase activity was measured in cell extracts and normalized against Renilla with the Dual Luciferase Kit (Promega, Madison, Wis.).

[3] = system: BCWM.1 cells; test: Annexin-V apoptosis assay, BCWM.1; type: cell-based, human
Method: (§1) FIG. 18 is a series of representative heat density plots showing Annexin-V staining in BCWM.1 and BCWM.1/BR±b-AP15 treatment, indicating about 46% cell death in BCWM.1 cells (top panels) and about 42% cell death in BCWM.1/BR cells (bottom panels).
(§2) Apoptosis was measured using the Annexin V binding assay kit from BD Biosciences according to the manufacturer's instructions. Briefly, at the end of the treatment, cells were washed with PBS and 1×10^6 cells were re-suspended in 100 μl of binding buffer. Fluorescein isothiocycanate (FITC)-labelled Annexin V (5 μl) and propidium iodide (10μ were added to each sample and incubated in the dark for 15 minutes at room temperature. The cells were subsequently analyzed by flow cytometry using BD Accuri, the C6 flow cytometer and its software. Data from 10,000 events per sample were collected and analyzed.

[4] = system: RPCI-WM1; test: MTS viability assay, RPCI-WM1; type: cell-based, human; conditions: 72-h MTS assay
Method: Twenty thousand cells/200 μl in quadruplicates were incubated with serially diluted b-AP15 (1-1000 nmol/l) in 96-well plates at 37° C. for 72 hours. MTS (3-(4,5-dimethylthiazol-2-yl)-5-(3-carboxymethoxyphenyl)-2-(4-sulfophenyl)-2H-tetrazolium) reagent (Molecular Probes, Eugene, Oreg.) was added at 40 μl/well and the plates were further incubated at 37° C. for 3 hours and the developed color was read at 490 nm using a BioTek synergy HT plate reader against blanks with no cells.

[5] = system: BCWM.1 cells; test: Mitochondrial outer membrane permeability (TMRM), BCWM.1; type: cell-based, human
Method: FIG. 19 is a pair of histograms showing MOMP in representative WM models±b-AP15 treatment (BCWM.1 and BCWM.1/BR cells; one WT with its respective BR subclone). Black histogram represents control. Lines represent a shift in MOMP.
Cells were treated with different agents for 48 hours and assessed for MOMP using tetramethylrhodamine methyl ester [TMRM] (Life Technologies). TMRM was directly added to the cell cultures at 100 nmol/1 concentrations and incubated at 37° C. in the dark for 15 minutes. At the end of the incubation, cells were washed twice with cold PBS containing 2% FBS and analyzed. The cells were washed for fluorescence (FL2) and analyzed by BD Accuri, the C6 flow cytometer and its software. Data from at least 20,000 events per sample were collected and analyzed. TMRM-negative (%) cells were calculated to determine % MOMP.

[6] = system: BCWM.1/BR cells; test: Annexin-V apoptosis assay, BCWM.1/BR; type: cell-based, human
Method: as §1, §2

[7] = molecular target: T1, 20S proteasome b5 subunit (Homo sapiens, UniProt P28074); test: Proteasomal activity assay, chymotrypsin-like (LLVY-AMC), WM cells; type: biochemical; conditions: 10 nmol/l; WT and BR WM cells
T1 construct: Cells were lysed at 4×10^6 cells/ml in proteasomal activity assay buffer; endogenous in cells; host or cells: BCWM.1, MWCL-1, RPCI-WM1 and their BR subclones (lysates)
T1 sequence (P28074 60-263): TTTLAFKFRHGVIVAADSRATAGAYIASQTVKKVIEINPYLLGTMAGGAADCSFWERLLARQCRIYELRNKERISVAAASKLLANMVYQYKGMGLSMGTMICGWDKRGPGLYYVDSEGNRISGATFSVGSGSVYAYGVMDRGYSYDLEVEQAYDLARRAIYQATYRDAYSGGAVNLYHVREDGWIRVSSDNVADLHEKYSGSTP
Method: FIGS. 10A and 10B are a series of graphs plotting the effect of b-AP15 treatment on 20S proteasome, b5-subunit (chymotrypsin-like) catalytic activity in WT and BR WM cells.
(§3) Cells were lysed at 4×10^6 cells/ml in proteasomal activity assay buffer [assay buffer; 25 mmol/1 HEPES buffer, pH7.5 containing 0.5 mmol/1 EDTA, 0.05% Nonidet P-40, 0.01% sodium dodecyl sulfate (SDS)] and immediately used in the assay. Enzyme reactions were performed in 96-well plates with 100 μl of final volume containing […] fluorogenic peptide substrates. The substrates used were LLVY-AMC for chymotrypsin like activity, LLE-AMC for caspase-like activity and LRR-AMC for trypsin-like activity. Reactions were incubated at 37° C. for 1 hour and fluorescence was measured at 360/460 using a BioTek synergy HT plate reader (BioTek, Winooski, Vt.).

[8] = molecular target: T2, proteasome b2 subunit (trypsin-like activity) (Homo sapiens, UniProt Q99436); test: Proteasomal activity assay, trypsin-like (LRR-AMC), WM cells; type: biochemical; conditions: 10 nM; BCWM.1 and BCWM.1/BR shown
T2 construct: Cells were lysed at 4×10^6 cells/ml in proteasomal activity assay buffer; endogenous in cells; host or cells: BCWM.1 and BCWM.1/BR (lysates)
Method: FIGS. 17A-17D are a series of graphs plotting the effects of bortezomib (10 nM), carfilzomib (10 nM) and b-AP15 (10 nM) on caspase-like and trypsin-like proteasomal activities, as assessed in three WT and three BR WM cell lines in vitro using the fluorogenic substrates LLE-AMC (caspase-like activity) and LRR-AMC (trypsin-like activity). Reactions were incubated at 37° C. for 1 hour and the fluorescence was measured at 360/460 and expressed as relative fluorescence units (RFU), using BioTek synergy HT plate reader. Data from two representative cell lines (BCWM.1 and its BR subclone) are shown.
as §3

T2 sequence (Q99436 44-277): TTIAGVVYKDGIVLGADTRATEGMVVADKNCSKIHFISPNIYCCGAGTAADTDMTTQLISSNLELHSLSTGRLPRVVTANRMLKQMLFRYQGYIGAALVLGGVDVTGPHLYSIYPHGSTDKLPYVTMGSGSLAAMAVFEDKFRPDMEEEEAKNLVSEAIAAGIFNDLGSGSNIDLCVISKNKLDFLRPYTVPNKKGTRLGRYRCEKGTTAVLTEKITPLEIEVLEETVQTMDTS

C=CC(=O)N1C/C(=C\c2ccc([N+](=O)[O-])cc2)C(=O)/C(=C/c2ccc([N+](=O)[O-])cc2)C1 [b-AP15]
WM cells experiencing apoptosis [1]: approximately 50% | NF-κB luciferase reporter activity [2]: significantly reduced; also recorded: significant reduction | cell death (Annexin-V staining) [3]: about 46% | IC50 [4]: 16 nM | increase in MOMP [5]: 57% | cell death (Annexin-V staining) [6]: about 42% | chymotrypsin-like activity (LLVY) of the b5 subunit [7]: did not alter chymotryptic activity; also recorded: no loss of the chymotrypsin-like activity | trypsin-like proteasomal activity [8]: no change in trypsin-like activity
